# In patent publication US6387605B1, “Co-developers for black-and-white photothermographic elements” (Eastman Kodak Company, priority 1999, dated 2002):
# Assay: Solubility of co-developers in coating solvents (Example 5)
# Assay type: physicochemical
# Experimental: Solubility of Co-developers: In order for the co-developer to perform effectively, some quantity of the co-developer must be soluble in the coating solvent for the emulsion layer or topcoat layer. 2-Butanone MEK) and methanol are typical solvents for these layers. Solubility will vary depending on the structure of the co-developer, the composition of the layer containing the co-developer, and the solvents employed.
# The photothermographic elements of this invention typically require from 10 mg to 100 mg of co-developer in 40 g of photothermographic emulsion in 25 g 2-butanone in order to achieve high contrast. The photothermographic emulsions are held at 50° F. (10° C.). As this is below room temperature, the solubility is below that of the co-developer at room temperature.
# The solubility of co-developer CI-03 in 25 g of 2-butanone (MEK) and in 25 g of methanol was determined.
smiles,measurement,setting,value
"O=C1NC(=O)C(=CO)C(=O)N1 [CI-03, 5-(Hydroxymethylone)-2,4,5(1H3H,5H)-pyrimdine-trione]",Solubility in MEK,"2.5 mg in 25 g 2-butanone, room temperature",Soluble at room temperature.
same,Solubility in MEK,"5.0 mg in 25 g 2-butanone, 90° F. (32° C.)",Soluble at 90° F. (32° C.).
same,Solubility in MEK,"5.0 mg in 25 g 2-butanone, room temperature",Insoluble at room temperature.
same,Solubility in MeOH,"5 mg in 25 g methanol, room temperature",Soluble at room temperature.
same,Solubility in MEK,"12.5 mg in 25 g 2-butanone, 90° F. (32° C.)",Insoluble at 90° F. (32° C.).
same,Solubility in MeOH,"12.5 mg in 25 g methanol, 90° F. (32° C.)",Soluble at 90° F. (32° C.).
same,Solubility in MeOH,"12.5 mg in 25 g methanol, room temperature",Insoluble at room temperature.
same,Solubility in MEK,"25 mg in 25 g 2-butanone, 90° F. (32° C.)",Insoluble at 90° F. (32° C.).
same,Solubility in MeOH,"25 mg in 25 g methanol, 90° F. (32° C.)",Soluble at 90° F. (32° C.).
same,Solubility in MeOH,"25 mg in 25 g methanol, room temperature",Insoluble at room temperature.
same,Solubility in organic solvents,"Example 1, sample 1-28",Compound CI-03 was insoluble in organic solvents.
